Data taken from paper PMC7732020 (Nucleosides, nucleotides & nucleic acids, 2009).
Like-named read-outs stand apart in the source and are kept apart here.

How the values were obtained:
HIV = conditions: isomeric adenine nucleosides with 2′-α-fluoro atom; cited from earlier work
HIV-1 [1] = conditions: read-out: Anti-HIV-1 activity EC50; PBM cells; taken from literature; cited from earlier work
human PBM cells [2] = conditions: cited from earlier work
human PBM cells [3] = test system: human PBM cells
HIV-1 [4] = assay: Anti-HIV-1 activity in human PBM cells; assay type: cell-based; conditions: primary human PBM cells; for EC50: read-out: Anti-HIV-1 activity EC50; for EC90: read-out: Anti-HIV-1 activity EC90
HCV = assay: Anti-HCV activity in replicon assay Huh7 cells; assay type: cell-based, hepatitis C virus; conditions: for EC50: read-out: Anti-HCV activity EC50; for EC90: read-out: Anti-HCV activity EC90
Huh-7 Replicon cells = assay: Toxicity in Huh-7 Replicon cells; conditions: read-out: CC50 (toxicity in Huh-7 Replicon cells); replicon assay Huh7 cells

Row | SMILES | antiviral activity (HIV) | EC50 (HIV-1 [1]) [µM] | CC50 (human PBM cells [2]) [µM] | CC50 (human PBM cells [3]) [µM] | EC50 (HIV-1 [4]) [µM] | EC90 (HIV-1 [4]) [µM] | CC50 (Vero cells) [µM] | EC50 (HCV) [µM] | EC90 (HCV) [µM] | CC50 (Huh-7 Replicon cells) [µM] | CC50 (CEM cells) [µM]
1 | Nc1ncnc2c1ncn2[C@@H]1O[C@H](CO)[C@@H](F)[C@H]1F [2′,3′-dideoxy-2′,3′-difluoro–adenosine] | without antiviral activity | – | – | – | – | – | – | – | – | – | –
2 | Nc1ncnc2c1ncn2[C@@H]1O[C@H](CO)C[C@H]1F [2′-α-FddA, 9-(2′,3′-dideoxy-2′-fluoro-β-D-erythro-pentofuranosyl)adenine] | without antiviral activity | – | – | – | – | – | – | – | – | – | –
3 | Nc1ncnc2c1ncn2[C@@H]1O[C@H](CO)C[C@@H]1F [2′-β-FddA, lodenosine] | – | 4.4 | > 100 | – | – | – | – | – | – | – | –
4 | Cc1cn([C@H]2C[C@H](N=[N+]=[N-])[C@@H](CO)O2)c(=O)[nH]c1=O [AZT, reference compound] | – | – | – | > 100 | 0.0026 | 0.01 | 56 | – | – | – | –
5 | C[C@@]1(O)[C@H](O)[C@@H](CO)O[C@H]1n1ccc(N)nc1=O [Compound 2-C-Me-C, reference compound] | – | – | – | – | – | – | – | 1.3 | 5.4 | > 10 | –
6 | Nc1ncnc2c1ncn2[C@@H]1O[C@H](CO)[C@@H](F)[C@@H]1F [Compound 20, 9-(2′,3′-Dideoxy-2′,3′-difluoro-β-D-arabinofuranosyl)adenine] | – | – | – | > 100 | 0.72 | 10.3 | > 100 | > 10 | > 10 | > 10 | > 100
7 | Nc1nc(Cl)nc2c1ncn2[C@@H]1O[C@H](CO)[C@@H](F)[C@@H]1F [Compound 22, 2-chloro-9-(2′,3′-dideoxy-2,3-difluoro-β-D-arabinofuranosyl)adenine] | – | – | – | 13.6 | 14.1 | 46.3 | > 100 | > 10 | > 10 | > 10 | 70.2
